# Measurements: patent US6861416B2, “Oxazinones and methods for their use and synthesis” (Chirologix Pharmaceuticals, Inc., priority 2001, dated 2005)
# Legend:
# Micrococcus luteus = experiment: Filter disc bioassay on agar plates seeded with Micrococcus luteus; assay type: cell-based; settings: for Zone Size: agar plate
# Protocol: Samples of 2-carboxymethyl-5-hydroxy-1,2-oxazin-3-one and penicillin were applied to a filter disc in the amounts indicated in Table 1, below. The discs were applied to agar plates seeded with Micrococcus luteus, and the plates were incubated over night at 37° C.
# Samples of 2-[2-carboxypropyl]-5-hydroxy-1,2-oxazin-3-one and desacetoxycephalosporin G were applied to a filter disc in the amounts indicated in Table 2, below. The discs were applied to agar plates seeded with Micrococcus luteus, and the plates were incubated overnight at 37° C.
structure (smiles),measurement,setting,value
"CC1=C(C(=O)O)N2C(=O)[C@@H](NC(=O)Cc3ccccc3)[C@H]2SC1 [desacetoxycephalosporin G, reference compound]",Zone Size,"Micrococcus luteus; 2.5 micrograms on filter disc, incubated overnight at 37° C.",2.5 cm
"CC(CN1OC=C(O)CC1=O)C(=O)O (stereo not drawn) [2-[2-carboxypropyl]-5-hydroxy-1,2-oxazin-3-one]",Zone Size,"Micrococcus luteus; 12.0 micrograms on filter disc, incubated overnight at 37° C.",2.0 cm
same,"antibacterial activity, times the activity of 2-carboxymethyl-5-hydroxy-1,2-oxazin-3-one","Micrococcus luteus; relative to 2-carboxymethyl-5-hydroxy-1,2-oxazin-3-one, from Tables 1 and 2",approximately 50 times
"C[C@H](C(=O)OC(C)(C)C)N1OC[C@@H](O)[C@@H](O)C1=O [8b, (αR,4R,5R)-2-(α-tert-Butoxycarbonylethyl)-4,5-dihydroxy-1,2-oxazinan-3-one]",melting point,,93 to 94 °C
"CC1(C)S[C@@H]2[C@H](NC(=O)Cc3ccccc3)C(=O)N2[C@H]1C(=O)O [Penicillin G, reference compound]",Zone Size,"Micrococcus luteus; 0.1 micrograms on filter disc, incubated over night at 37° C.",1.6 cm
"O=C(O)CN1OC=C(O)CC1=O [2-carboxymethyl-5-hydroxy-1,2-oxazin-3-one]",Zone Size,"Micrococcus luteus; 100 micrograms on filter disc, incubated over night at 37° C.",1.1 cm
same,Zone Size,"Micrococcus luteus; 1000 micrograms on filter disc, incubated over night at 37° C.",2.0 cm
same,antibacterial activity (in words),Micrococcus luteus; judged from Tables 1 and 2,weak antibacterial activity
same,"antibacterial activity, times less than that of penicillin","Micrococcus luteus; relative to penicillin, from Tables 1 and 2",at least 1000 times
